Molecular target: T1, Ubiquitin carboxyl-terminal hydrolase 19 (Homo sapiens, UniProt O94966)
T1 sequence (O94966 whole entry): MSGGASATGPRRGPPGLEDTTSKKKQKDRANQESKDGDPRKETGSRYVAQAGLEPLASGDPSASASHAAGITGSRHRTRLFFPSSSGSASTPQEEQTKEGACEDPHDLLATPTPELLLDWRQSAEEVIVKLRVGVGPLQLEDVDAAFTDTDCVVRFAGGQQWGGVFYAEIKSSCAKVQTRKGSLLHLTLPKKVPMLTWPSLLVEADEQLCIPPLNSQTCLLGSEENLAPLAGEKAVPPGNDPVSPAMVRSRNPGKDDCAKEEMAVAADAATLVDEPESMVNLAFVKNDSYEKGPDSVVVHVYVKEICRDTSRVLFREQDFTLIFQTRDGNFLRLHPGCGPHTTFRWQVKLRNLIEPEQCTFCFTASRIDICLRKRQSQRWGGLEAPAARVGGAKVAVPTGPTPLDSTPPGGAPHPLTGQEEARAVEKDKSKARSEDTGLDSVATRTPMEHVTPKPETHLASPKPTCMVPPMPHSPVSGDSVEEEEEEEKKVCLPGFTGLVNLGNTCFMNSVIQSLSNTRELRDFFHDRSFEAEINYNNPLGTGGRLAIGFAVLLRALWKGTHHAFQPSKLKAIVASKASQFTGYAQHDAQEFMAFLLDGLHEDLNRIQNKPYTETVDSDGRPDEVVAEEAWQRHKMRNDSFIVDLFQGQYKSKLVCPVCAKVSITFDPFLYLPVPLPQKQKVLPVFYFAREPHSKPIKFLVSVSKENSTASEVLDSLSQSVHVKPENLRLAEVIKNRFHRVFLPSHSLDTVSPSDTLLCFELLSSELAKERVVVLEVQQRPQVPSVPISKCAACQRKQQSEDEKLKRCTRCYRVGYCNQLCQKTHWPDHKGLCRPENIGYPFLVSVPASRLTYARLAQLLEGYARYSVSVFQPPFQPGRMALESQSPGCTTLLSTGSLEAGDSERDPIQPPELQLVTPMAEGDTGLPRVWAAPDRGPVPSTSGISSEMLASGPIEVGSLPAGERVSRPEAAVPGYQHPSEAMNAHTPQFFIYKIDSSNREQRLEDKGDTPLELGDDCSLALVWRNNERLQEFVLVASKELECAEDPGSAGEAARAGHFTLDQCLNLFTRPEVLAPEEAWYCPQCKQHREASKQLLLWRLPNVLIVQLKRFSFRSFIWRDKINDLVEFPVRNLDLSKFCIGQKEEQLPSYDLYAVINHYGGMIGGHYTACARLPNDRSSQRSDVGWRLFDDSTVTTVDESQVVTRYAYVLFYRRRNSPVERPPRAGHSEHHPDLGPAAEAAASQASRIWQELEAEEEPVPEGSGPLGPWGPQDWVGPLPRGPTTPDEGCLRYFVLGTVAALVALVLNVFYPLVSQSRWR
Test: Fluorescence Polarization (FP) Homogeneous Assay
Experimental: Unless otherwise stated, all other reagents were purchased from Sigma. Enzymatic reactions were conducted in black flat bottom polystyrene 384-well plates (Nunc) and 30 μL total volume. […] Inhibitors were stored as 10 mM DMSO stocks in an inert environment (low humidity, dark, low oxygen, room temperature) using the Storage Pod System and serial dilutions were prepared in buffer just prior to the assay (from 200 μM to 2 pM, 8-18 data point curve). Following incubation at rt for 30 min, the enzymatic reactions were initiated by dispensing the Ub substrate (500 nM, 10 μL). FP was measured every 15 min over a period of 90 min (within the linear range of the assay) using a Synergy 4 plate reader (BioTek) exciting at 530 nm and measuring the amount of parallel and perpendicular light at 575 nm. The FP signal was subsequently normalized to the no compound control.

Compound | IC50
CN(C)c1cc(=O)n(C[C@]2(O)CCN(C(=O)N3CCNC[C@H]3c3ccccc3)CC23CCCC3)cn1 [US11807646, Example 318] | < 500 nM
CS(C)(=O)=Nc1cn(CC2(O)CCN(C(=O)N3CCNC[C@H]3c3ccccc3)CC23CCCC3)c(=O)cc1-c1ccccc1 (some centres not stated) [US11807646, Example 191] | < 500 nM
O=C(N1CCC(O)(Cn2cnc(-c3ccccc3)cc2=O)C2(CCOCC2)C1)N1CCNC[C@H]1c1ccccc1 (some centres not stated) [US11807646, Example 321] | < 500 nM
O=C(N1CC[C@@](O)(Cn2ncc(-c3ccccc3)cc2=O)C2(CCCC2)C1)N1CCOC[C@H]1c1ccccc1 [US11807646, Example 280] | < 500 nM

Continued, values first:

IC50 | Compound
< 500 nM | O=C(N1CC[C@@](O)(Cn2cc(F)c(-c3ccccc3)cc2=O)C2(CCCC2)C1)N1CCNC[C@H]1c1ccccc1 [US11807646, Example 331]
< 500 nM | O=C1CN(c2ccccc2)CCN1CC1(O)CCN(C(=O)NCc2ccccc2)CC12CCCC2 (configuration not stated) [US11807646, Example 109]
< 500 nM | O=C(N1CC[C@@](O)(Cn2cnc(-c3ccccc3)cc2=O)C2(CCCC2)C1)N1CC[S+]([O-])CC1c1ccccc1 (some centres not stated) [US11807646, Example 337]

From BindingDB's records for patent US11807646 (Almac Discovery, 2023)
